Source: ChEMBL document CHEMBL3244278, “Cerebrovasodilatation through selective inhibition of the enzyme carbonic anhydrase. 1. Substituted benzenedisulfonamides” (J Med Chem, 1978)
Activity calls are given as the source filed them. No cut-off for these calls is given here.

Experiments:
Mus musculus [1] = test: Anticonvulsant activity in po dosed mouse assessed as protection against electroshock-induced maximal seizure effect administered via gavage 2 hrs prior to electroshock stimulation; format: functional; conditions: for ED50: Mus musculus, po
[2] = Octanol-water partition coefficient, log P of the compound; format: physicochemical
[3] = Elimination half life in iv dosed dog plasma; format: ADME, organism-based, Canis lupus familiaris; conditions: read-out: beta t1/2 (converted)
[4] = Dissociation constant, pKa of the compound; format: physicochemical
[5] = Protein binding in plasma (unknown origin); format: ADME, cell-free; conditions: unidentified, read-out: PPB (converted)
Mus musculus [6] = test: Anticonvulsant activity in mouse assessed as protection against electroshock-induced maximal seizure effect up to 100 mg/kg, po administered via gavage 2 hrs prior to electroshock stimulation; format: functional, organism-based; set-up: dose 100 mg/kg
Rattus norvegicus = test: Induction of diuretic activity in po dosed rat assessed as increase in urine output after 4 hrs; format: organism-based

Structure (SMILES) | Activity (Mus musculus [6]) | further results
NS(=O)(=O)c1ccc(S(=O)(=O)N2CCC(O)(c3ccccn3)CC2)cc1 | – | ED50 (Mus musculus [1]): 40 mg/kg
COC1CCN(S(=O)(=O)c2ccc(S(N)(=O)=O)c(Cl)c2)CC1 [UK-12130] | – | logP [2]: 0.62; half-life [3]: 180 min
NS(=O)(=O)c1nnc(NS(=O)(=O)c2ccccc2)s1 [BENZOLAMIDE] | – | pKa [4]: 3.2; fraction unbound [5]: 0.08
CC(=O)C1CCN(S(=O)(=O)c2ccc(S(N)(=O)=O)cc2)CC1 | inactive | –
COC1(C)CCN(S(=O)(=O)c2ccc(S(N)(=O)=O)cc2)CC1 | inactive | –
CN1CN(c2ccccc2)C2(CCN(S(=O)(=O)c3ccc(S(N)(=O)=O)cc3)CC2)C1=O | – | ED50 (Mus musculus [1]): > 40 mg/kg
COC1CCN(S(=O)(=O)c2cc(C)c(S(N)(=O)=O)c(C)c2)CC1 | inactive | –
NS(=O)(=O)c1ccc(S(=O)(=O)N2CCC3(CC2)NC(=O)NC3=O)cc1Cl | inactive | –
NS(=O)(=O)c1ccc(S(=O)(=O)N2CCOCC2)cc1C(F)(F)F | inactive | –
COC1CCN(S(=O)(=O)c2cc(Cl)c(S(N)(=O)=O)cc2C)CC1 | inactive | –
COC1CCN(S(=O)(=O)c2c(Cl)cc(S(N)(=O)=O)cc2Cl)CC1 | inactive | –
CC(=O)Nc1nnc(S(N)(=O)=O)s1 [ACETAZOLAMIDE] | – | Activity (Mus musculus [1]): 36 mg/kg; ED50 (Rattus norvegicus): 5 mg/kg
COC1CCN(S(=O)(=O)c2ccc(S(N)(=O)=O)c(C(F)(F)F)c2)CC1 | inactive | –
NS(=O)(=O)c1cc(Cl)c(S(=O)(=O)N2CCOCC2)c(Cl)c1 | inactive | –
